We go through 9 molecules from PubChem BioAssay (NCI).

Test systems include CAKI-1 renal; COLO 205 colon; HOP-92 NSCLC; IGROV1 ovarian; MALME-3M melanoma; NCI-H460 lung; OVCAR-8 ovarian; SK-MEL-2 melanoma; SN12C renal; TK-10 renal.
Common to all, as to assay: DTP human tumour cell line panel, 48 h

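Step 1: Grow cells in 96-well plates. Step 2: Expose to compound for 48 hours at 5 concentrations. Step 3: Interpolate endpoints linearly; if unreached, use highest concentration. The concentration for 50% growth inhibition is given as GI50. TGI marks complete inhibition of growth.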 A value given as a limit tells only on which side of the number the result lay.

Regarding `CCC(C)CC(CC)NCCN1CCN(C(CC)CC(C)CC)C1=S` (stereo not given), the GI50 (as a rule, the concentration giving 50% growth inhibition) is 1.8 µM with CAKI-1 renal; 1.6 µM in the assay on COLO 205 colon; 1.05 µM with HOP-92 NSCLC; 2.23 µM in the assay with IGROV1 ovarian; 1.74 µM with MALME-3M melanoma; 2.5 µM in the assay with NCI-H460 lung. For the same molecule, the GI50 in the assay on OVCAR-8 ovarian is 1.66 µM; in the assay with SK-MEL-2 melanoma, 1.89 µM; in the assay on SN12C renal it was 2.55 µM; with TK-10 renal, 3.16 µM. Besides, the TGI (in general, the concentration at which net growth stops) in the assay on CAKI-1 renal amounted to 3.66 µM; in the assay on COLO 205 colon it was 2.95 µM; in the assay with HOP-92 NSCLC it was 2.96 µM; with IGROV1 ovarian it was 4.53 µM; with MALME-3M melanoma, 3.19 µM; with NCI-H460 lung, 4.1 µM. Besides, the TGI with OVCAR-8 ovarian was determined as 3.05 µM; in the assay with SK-MEL-2 melanoma, 3.41 µM; with SN12C renal, 7.83 µM; in the assay with TK-10 renal, 11 µM.

On to `COc1ccc(/C=C/C(C(=O)O)C(=O)O)cc1`, for which the TGI in the assay on CAKI-1 renal, with COLO 205 colon, in the assay with HOP-92 NSCLC, in the assay with IGROV1 ovarian, in the assay with MALME-3M melanoma and in the assay on NCI-H460 lung was greater than 100 µM each time. The TGI in the assay with OVCAR-8 ovarian, with SK-MEL-2 melanoma, in the assay on SN12C renal and in the assay on TK-10 renal was greater than 100 µM throughout.

`Cc1ccc(N(C(=O)CC(=O)N2N=C(c3ccccc3)C(N=Nc3ccc([N+](=O)[O-])cc3)C2=O)C(=O)c2ccc(Cl)cc2)cc1` (stereo not given): the TGI was greater than 76.8 µM with CAKI-1 renal; 10.4 µM with COLO 205 colon; 56.5 µM in the assay on HOP-92 NSCLC; 45.9 µM in the assay with IGROV1 ovarian; greater than 100 µM with MALME-3M melanoma; greater than 47.8 µM in the assay with NCI-H460 lung. Also, the TGI is 38.3 µM with OVCAR-8 ovarian, greater than 62.4 µM in the assay with SK-MEL-2 melanoma, greater than 81.1 µM with SN12C renal and greater than 51.4 µM in the assay with TK-10 renal.

As to `COc1ccc2sc3c(NCCCNCCO)nc4ccccc4c3c(=O)c2c1`, the GI50 in the assay with CAKI-1 renal is 1.57 µM; in the assay with COLO 205 colon it was 1.66 µM; with HOP-92 NSCLC, 1.35 µM; in the assay with IGROV1 ovarian, 1.33 µM; with MALME-3M melanoma, 1.69 µM; with NCI-H460 lung, 1.51 µM. The GI50 in the assay with OVCAR-8 ovarian was 1.65 µM; in the assay on SK-MEL-2 melanoma, 2.08 µM; in the assay on SN12C renal, 1.6 µM; in the assay on TK-10 renal, 1.83 µM. The TGI in the assay with CAKI-1 renal stood at 2.99 µM; in the assay with COLO 205 colon, 3.65 µM; in the assay with HOP-92 NSCLC, 6.74 µM; in the assay with IGROV1 ovarian, 2.85 µM; in the assay with MALME-3M melanoma, 3.26 µM; in the assay with NCI-H460 lung, 2.96 µM. The TGI turned out to be 3.45 µM in the assay on OVCAR-8 ovarian, 4.07 µM in the assay with SK-MEL-2 melanoma, 3.12 µM with SN12C renal and 3.38 µM in the assay with TK-10 renal.

Regarding `O=C1C(=O)c2c(nc3ncccn23)-c2ccccc21`, the GI50 in the assay with CAKI-1 renal was 0.64 µM; in the assay on COLO 205 colon, 2.13 µM; in the assay with HOP-92 NSCLC it was 0.271 µM; in the assay on IGROV1 ovarian, 0.245 µM; in the assay on MALME-3M melanoma it was 0.169 µM; with NCI-H460 lung, 0.227 µM. Besides, the GI50 in the assay with OVCAR-8 ovarian is 0.306 µM; with SK-MEL-2 melanoma, 0.243 µM; with SN12C renal it was 0.173 µM; in the assay on TK-10 renal, 1.85 µM. Besides, the TGI with CAKI-1 renal was found to be 1.9 µM; in the assay on COLO 205 colon it was 4.53 µM; with HOP-92 NSCLC, 1 µM; in the assay with IGROV1 ovarian, 0.566 µM; in the assay with MALME-3M melanoma, 0.307 µM; with NCI-H460 lung it was 0.526 µM. In addition, the TGI with OVCAR-8 ovarian worked out at 1.27 µM; in the assay on SK-MEL-2 melanoma, 0.532 µM; in the assay on SN12C renal it was 0.325 µM; in the assay with TK-10 renal, 3.35 µM.

As for `CC(C)(C)c1nnc2n(c1=O)N=CC(c1ccc(Br)cc1)S2` (stereo not given), the GI50 was 24.7 µM in the assay with CAKI-1 renal; 39.2 µM with COLO 205 colon; 40.9 µM with HOP-92 NSCLC; 26.5 µM in the assay with IGROV1 ovarian; 26.9 µM with MALME-3M melanoma; 30.1 µM in the assay with NCI-H460 lung. Moreover, the GI50 is 34.7 µM with OVCAR-8 ovarian, 25.3 µM in the assay on SK-MEL-2 melanoma, 27.7 µM in the assay with SN12C renal and 34.7 µM with TK-10 renal. For the same molecule, the TGI in the assay with CAKI-1 renal is 62.5 µM; with COLO 205 colon it was greater than 100 µM; in the assay with HOP-92 NSCLC, greater than 100 µM; in the assay with IGROV1 ovarian, 92.8 µM; with MALME-3M melanoma, 79.7 µM; with NCI-H460 lung, greater than 100 µM. In addition, the TGI is greater than 100 µM in the assay on OVCAR-8 ovarian, 66.1 µM in the assay with SK-MEL-2 melanoma, 57.2 µM with SN12C renal and greater than 100 µM with TK-10 renal.

On to `Clc1ccc(-c2cn(-c3ccccc3)c(-c3ccccc3)n2)c(Cl)c1`, for which the GI50 in the assay with CAKI-1 renal is 1.2 µM; with COLO 205 colon, 1.14 µM; with HOP-92 NSCLC, 11.7 µM; in the assay on IGROV1 ovarian, 2.92 µM; with MALME-3M melanoma, 1.32 µM; with NCI-H460 lung it was 1.09 µM. For the same molecule, the GI50 in the assay on OVCAR-8 ovarian is 3.18 µM; with SK-MEL-2 melanoma, greater than 50 µM; in the assay on SN12C renal, 4.09 µM; in the assay with TK-10 renal it was 1.14 µM. For the same molecule, the TGI in the assay on CAKI-1 renal was 4.4 µM; in the assay with COLO 205 colon, 3.03 µM; in the assay with HOP-92 NSCLC, greater than 50 µM; with IGROV1 ovarian, greater than 44.8 µM; with MALME-3M melanoma, 6.92 µM; in the assay on NCI-H460 lung it was 2.39 µM. For the same molecule, the TGI with OVCAR-8 ovarian was greater than 31.5 µM; in the assay with SK-MEL-2 melanoma it was greater than 50 µM; in the assay on SN12C renal it was greater than 30.1 µM; in the assay on TK-10 renal, 2.17 µM.

As to `COP1(=S)OCC2CCC[C@@H]2O1` (stereo not given in full), the TGI with CAKI-1 renal, in the assay with COLO 205 colon, with HOP-92 NSCLC, in the assay with IGROV1 ovarian, with MALME-3M melanoma and in the assay on NCI-H460 lung was greater than 100 µM each time. The TGI in the assay on OVCAR-8 ovarian, in the assay on SK-MEL-2 melanoma, with SN12C renal and in the assay on TK-10 renal was greater than 100 µM in each case.

As for `O=C1NC(=S)NC(=O)C1=Cc1ccc2ccccc2n1`, the TGI in the assay on CAKI-1 renal, in the assay with COLO 205 colon, in the assay on HOP-92 NSCLC, with IGROV1 ovarian, in the assay with MALME-3M melanoma and in the assay with NCI-H460 lung was greater than 100 µM throughout. For the same molecule, the TGI in the assay with OVCAR-8 ovarian, with SK-MEL-2 melanoma, with SN12C renal and with TK-10 renal was greater than 100 µM in each case.
